From US12491176B2, “Methods, compositions, kits and uses thereof targeting and/or treating VRK2 to enhance effectiveness of immune checkpoint inhibitor(s)” (THE TRUSTEES OF COLUMBIA UNIVERSITY IN THE CITY OF NEW YORK, priority 2021, dated 2025)
“Also recorded” adds a separate entry of the source.

How the values were obtained:
MC38 tumor = test: MC38 syngeneic mouse tumor model, tumor growth; type: in vivo
Source text: (§1) One million MC38 or 4T1 cells were used for inoculation, implanted subcutaneously in the right hind flank of mice. Tumor growth was monitored using electronic calipers and calculated according to the formula: V=length×width^2×0.52. For T cell phenotypic analysis by flow cytometry, spleens and inguinal lymph nodes were harvested 17 days post-treatment initiation. Splenic and tdLN cells were stained with anti-mouse antibodies for flow cytometry analysis. To deplete T cells, mice received intraperitoneal injection of 200 μg anti-CD4 (BioXcell BE0003) and 200 μg anti-CD8 (BioXcell BE0061) antibodies in PBS, a second dose of the antibodies was administered two days later. […] Cell viability was measured with PrestoBlue (Invitrogen). […] Prexasertib was given S.C. at 10 mg/kg. All drugs were given for 12 days.
(§2) The MC38 syngeneic mouse tumor model was used to determine whether VRK2 inhibition alone or in combination with PD-1 blockade would improve anti-tumor immune response (see, e.g., FIG. 3A).
Utilizing an immunocompetent syngeneic model, C57BL/6 mice were injected with colon adenocarcinoma cell line MC38 and treated with kinase inhibitors as monotherapy or in combination with a mouse immune checkpoint blocking antibody (clone RMP1.14) for PD-1.

4T1 tumor = test: 4T1 mouse breast cancer tumor model in BALB/c mice, tumor growth; type: in vivo
Source text: as §1

[1] = system: PAK2 S197 phosphorylation; test: Western blot of PAK2 S197 phosphorylation in Jurkat T cells following PD-1 ligation; type: cell-based, human
Experimental: To determine PAK phosphorylation, 5×10^6 Jurkat T cells were washed with cold PBS and resuspended in complete RPMI. The cells were stimulated for 5 minutes with Dynabeads at 37° C. as indicated above (beads/cells ratio of 3:1). The samples were treated with Calyculin A (CST 99025) at 100 nM for 25 minutes at 37° C., washed once with cold PBS and centrifugation at 500×g and lysed with RIPA buffer supplemented with PhosStop (Roche) for 1 hr at 4° C. Following 10 second sonication and centrifugation at 12,000×g for 10 minutes at 4° C., the samples were blotted using Phospho-PAK1 (Ser199/204)/PAK2 (Ser192/197) antibody (Cell Signaling). Blots were imaged and analyzed using Licor Odyssey.
Therefore, it was sought to validate the in silico predictions in Jurkat T cells with and without pharmacological VRK2 inhibition as well as in shRNA VRK2 knockdown Jurkat T cell line.

[2] = system: T cells in tdLN and spleen; test: T cell phenotypic analysis by flow cytometry in tdLN and spleen of MC38 tumor mice; type: in vivo, mouse
Source text: as §1, §2

mouse splenocytes = settings: overnight treatment
T cells = test: Toxicity to T cells; type: cell-based
PD-1 signaling = test: In vitro ability of PD-1 to inhibit cytokine secretion with IC-261; type: cell-based
Experimental: IL-2, IL-8, and IFN-γ concentrations in the supernatant were measured by enzyme linked immunosorbent assay (ELISA) from BioLegend.
IC-261 (AdooQ®: A15764), a small molecule specific inhibitor of VRK2 was used to evaluate the effect of VRK2 inhibition in tumor growth using mice MC38 syngenetic tumor model. This drug was also used in in vitro experiments where the ability of PD-1 to inhibit cytokine secretion was evaluated.

| Compound | MC38 tumor volume compared to Prexasertib (LY2606368) and PF-477,736 (MC38 tumor; AZD-7762 25 mg/kg, PF 10 mg/kg, Prexasertib 10 mg/kg, 12 days) | tumor inhibition (MC38 tumor; AZD-7762 in combination treatment with anti-PD-1, MC38 in C57BL/6 mice) | tumor volume compared to vehicle or anti-PD-1 antibody treatment (MC38 tumor; AZD-7762 treatment alone, MC38) | anti-tumor activity after CD4+ and CD8+ T cell depletion (MC38 tumor; MC38 model, T cells depleted with anti-CD4 and anti-CD8 antibodies) | anti-tumor responses compared to PD-1 blockade alone or AZD-7762 treatment alone (MC38 tumor; combination of AZD-7762 with PD-1 blockade, MC38) | inhibited tumor growth (MC38 tumor; monotherapy, 25 mg/kg intraperitoneal (I.P.), MC38 in C57BL/6 mice) [%] | reduction in tumor growth (4T1 tumor; AZD-7762 alone, 4T1 in BALB/c mice (resistant to PD-1 monotherapy)) [%] | reduction in tumor growth, combination versus AZD-7762 alone (4T1 tumor; combination of AZD-7762 and anti-PD-1, 4T1 in BALB/c mice) | PAK2 S197 phosphorylation following PD-1 ligation [1] | proportion of CD8 T cells in tumor draining lymph nodes (tdLN) ([2]; combination of AZD-7762 with PD-1 blockade) | proportion of CD44+PD-1+ T cells in spleen and tdLN ([2]; combination therapy) | proportion of activated CD44+CD69+ CD4+ and CD8+ T cells in the tdLN ([2]; combination therapy) | LAG-3+ CD8+ T cells ([2]; combination therapy, tdLN) | cytotoxicity compared to two other CHK specific inhibitors (mouse splenocytes) | inhibition of tumor growth (MC38 tumor; monotherapy, 5 mg/kg, MC38 in C57BL/6 mice) | toxicity to T cells (T cells) | effect on PD-1 signaling and function (ability of PD-1 to inhibit cytokine secretion) (PD-1 signaling) |
| --- | --- | --- | --- | --- | --- | --- | --- | --- | --- | --- | --- | --- | --- | --- | --- | --- | --- |
| NC(=O)Nc1cc(-c2cccc(F)c2)sc1C(=O)N[C@H]1CCCNC1 [AZD-7762] | marked decrease in MC38 tumor volume | around 90% | significantly decreased tumor volume | fully reversed the anti-tumor activity; also recorded: impaired the efficacy | augmented anti-tumor responses | ~80 | ~30 | similar | fully inhibited | increased proportion of CD8 T cells | elevated proportion | significantly increased proportion | significantly increased | less cytotoxicity |  |  |  |
| COc1cc(OC)c(C=C2C(O)=Nc3ccccc32)c(OC)c1 [IC-261] |  |  |  |  |  |  |  |  |  |  |  |  |  |  | inhibition of tumor growth, like anti-PD-1 dosed as monotherapy | not toxic to T cells | interfere with PD-1 signaling and function |
